Measured values as given in patent US20260021082A1, “EZH2 INHIBITION THERAPIES FOR THE TREATMENT OF AT-RICH INTERACTIVE DOMAIN-CONTAINING PROTEIN 1A (ARID1A) MUTATED CANCERS” (Constellation Pharmaceuticals, Inc., priority 2022, published 2026).
Like-named read-outs stand apart in the source and are kept apart here.

Tested on: panel of 21 bladder cancer cell lines
Assay: 18-day viability, summary over the panel
Type: cell-based
Settings: 432 h
Source text: Black bar indicates cell line carrying at least one ARID1A stop-gain (denoted by an *) or frameshift (fs) allele as detailed below the chart. Green bar indicates line carrying a single missense mutation, while grey bars indicate those lines with no mutations in the coding region of ARID1A. Data represented as an average of duplicate wells±SD and are representative of duplicate independent experiments.
The cell lines used were obtained from ATCC (Manassas, VA), DSMZ (Braunschweig, Germany), ECACC (Salisbury, UK or through Sigma), or JCRB (Osaka, Japan) and were grown in media recommended by the vendor (or indicated in supplementary methods table 1) and maintained at 37° C. in humidified incubators with 5% CO2. Cell lines were maintained in T75 flasks and subcultured by releasing from plates with TrypLE solution (Thermo Fisher Scientific/Invitrogen #12604021) every 2-4 days, depending on growth kinetics of the cell line, to maintain growth at subconfluent levels.
A panel of 21 bladder cancer cell lines was evaluated for their response to Compound 1. […] No association between Compound 1 sensitivity and baseline levels of EZH1, EZH2, H3K27me3, ARID1A or ARID1B by western blot were observed.

For `COC1CN([C@H]2CC[C@H]([C@@]3(C)Oc4c(Cl)cc(C(=O)NCc5c(SC)cc(C)[nH]c5=O)c(C)c4O3)CC2)C1` [Compound 1, (R)-7-chloro-2-((1r,4R)-4-(3-methoxyazetidin-1-yl)cyclohexyl)-2,4-dimethyl-N-((6-methyl-4-(methylthio)-2-oxo-1,2-dihydropyridin-3-yl)methyl)benzo[d][1,3]dioxole-5-carboxamide], the GI50 (sensitive subset (6) of the bladder cancer lines, after 18 days of treatment, read-out: GI50) was 3 to 37 nM and the GI50 (unresponsive (resistant) lines (15), 18 days, read-out: 18-day GI50) was over 5000 nM.
